Source: US8362256B2, “Salts of N-[4-(1-cyanocyclopentyl)phenyl]-2-(4-pyridylmethyl)amino-3-pyridinecarboxamide” (Jiangsu Hengrui Medicine Co. Ltd., priority 2008, dated 2013)
Several values for one entry are separate records, joined by “and”; a condition that tells them apart may be missing. Equal entries are not always repeated. Where two headings read alike, the source gives them in different places.

How the values were obtained:
[1] = Stability in different conditions, content by HPLC; assay type: physicochemical; conditions: for content after 6 Months Under Light / content after 6 Months at 60° C. / content after 6 Months at Room Temperature: HPLC, initial purity 99.6%
VEGFR-2 = VEGFR-2 (Homo sapiens, UniProt P35968); conditions: enzyme level tests in different laboratories; cited from earlier work
Chain of VEGFR-2 (P35968 20-1356, species assumed): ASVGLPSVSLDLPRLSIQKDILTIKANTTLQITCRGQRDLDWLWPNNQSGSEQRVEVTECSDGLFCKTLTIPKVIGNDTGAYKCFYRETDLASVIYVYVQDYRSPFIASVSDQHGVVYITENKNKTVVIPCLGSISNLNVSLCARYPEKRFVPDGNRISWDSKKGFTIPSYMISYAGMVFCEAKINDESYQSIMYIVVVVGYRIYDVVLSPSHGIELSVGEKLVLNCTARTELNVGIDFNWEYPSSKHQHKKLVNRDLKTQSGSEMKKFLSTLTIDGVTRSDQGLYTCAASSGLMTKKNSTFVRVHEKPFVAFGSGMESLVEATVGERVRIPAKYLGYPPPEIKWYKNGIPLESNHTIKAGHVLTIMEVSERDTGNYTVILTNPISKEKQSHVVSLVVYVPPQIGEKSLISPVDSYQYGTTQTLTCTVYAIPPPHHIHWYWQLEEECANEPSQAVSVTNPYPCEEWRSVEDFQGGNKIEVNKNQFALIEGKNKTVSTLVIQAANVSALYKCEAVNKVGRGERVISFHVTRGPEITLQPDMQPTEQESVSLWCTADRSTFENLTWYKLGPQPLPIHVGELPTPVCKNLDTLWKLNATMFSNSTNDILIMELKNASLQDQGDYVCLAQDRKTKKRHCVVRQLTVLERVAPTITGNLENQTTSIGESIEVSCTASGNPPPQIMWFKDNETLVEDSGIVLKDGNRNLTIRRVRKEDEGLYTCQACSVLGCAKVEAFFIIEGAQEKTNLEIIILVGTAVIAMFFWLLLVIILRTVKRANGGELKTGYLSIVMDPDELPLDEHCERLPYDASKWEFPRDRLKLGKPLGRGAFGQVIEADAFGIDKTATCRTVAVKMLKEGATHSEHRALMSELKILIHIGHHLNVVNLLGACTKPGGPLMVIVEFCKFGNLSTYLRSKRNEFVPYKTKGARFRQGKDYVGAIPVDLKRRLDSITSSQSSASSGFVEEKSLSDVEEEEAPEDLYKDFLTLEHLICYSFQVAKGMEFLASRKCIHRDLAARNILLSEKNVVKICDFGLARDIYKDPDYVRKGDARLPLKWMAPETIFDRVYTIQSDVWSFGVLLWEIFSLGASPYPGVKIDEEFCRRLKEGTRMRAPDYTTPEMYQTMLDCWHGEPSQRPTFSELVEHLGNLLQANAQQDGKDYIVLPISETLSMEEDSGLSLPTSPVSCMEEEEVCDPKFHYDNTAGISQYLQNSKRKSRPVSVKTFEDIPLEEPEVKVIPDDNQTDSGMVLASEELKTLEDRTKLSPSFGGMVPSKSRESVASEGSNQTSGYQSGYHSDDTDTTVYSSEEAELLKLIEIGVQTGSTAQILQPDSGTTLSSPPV

[2] = Bioavailability of compound A by oral administration (Example 4); assay type: in vivo, Sprague-Dawley (SD) rats; conditions: SD rats
Protocol: (§1) I. Analysis Condition of LC/MS/MS
(§2) Analysis Condition of Liquid Chromatography
(§3) Column temperature: 25° C.;
(§4) A: 25%+B: 75%, constant gradient elution;
(§5) Analysis time: 3 minutes.
Only after one week adaption, the rats could be used to conduct pharmacokinetics animal experiment.
The blood samples were collected into test tubes containing heparin added in advance, and then centrifuged to produce plasma. […] Euthanasia was performed on used rats with CO2 gas.

colon cancer Ls174t = conditions: cited from earlier work
[3] = test system: kinases Ret, VEGFR-1, PDGFR-β, c-kit, cSRC; conditions: cited from earlier work
[4] = test system: non-small cell lung cancer A549; conditions: cited from earlier work
Solubility = assay type: physicochemical
in vivo = conditions: rat, po, 1 mmol/kg
Excerpt: Male Sprague-Dawley (SD) rats (weight: about 250 g, experimental animal certification of fitness: 0006473) were purchased from Shanghai Slaccas experimental animals limited liability company (certification number: SCXK (Hu) 2003-0003). The relevant qualifications and state of health of the SD rats were checked first, and the eligible ones were placed into the clean grade chambers of rats in Shanghai institute of Materia Medica.
as §1, §2
Chromatographic column: Agilent Zorbax SB-C18 column (50 mm×2.1 mm ID);
as §3
Mobile phase: A: H2O—CH3CN (2:98, v/v), B: H2O—CH3CN (10:90, v/v)
as §4, §5
The light circle was switched to 12/12 hour day/night in the clean grade chambers of rats. Humidity and temperature were 40-60% and 20-24° C., respectively. Every 4 rats were raised in a 36×24×19 cm^3 stainless rat cage. The rats took water freely and were fed special rat food regularly once daily. Only after one week adaption, the rats were used to conduct pharmacokinetics studies. 12 Sprague-Dawley rats were divided into 4 groups, 3 for each group.
The blood samples were collected 0 hour before the administration and 0.083, 0.25, 0.5, 1.0, 2, 4, 6, and 8 hours after the administration. The blood samples were collected at 250˜300 μL at each time point from posterior venous sinus of the eye after respiration anaesthesia with ether (the degree of anaesthesia was highly controlled). The blood was collected into test tubes containing heparin, and then was centrifuged to produce plasma. The obtained plasma was divided into 2 parts (50 μL for each part) and stored at −70° C. until analysis. […] After experiments, euthanasia was performed with CO2 gas.
Pharmacokinetics parameters of animal experiment of each group were calculated using InnaPhase Kinetica™ software (America).

human colon cancer HT-29 = test: Efficacy on human colon cancer HT-29 transplanted in nude mice
Protocol: BALB/cA-nude mice, ♀, 5-6 weeks-old, purchased from Shanghai Slaccas experimental animals limited liability company. […] Rearing environment: SPF grade.
(§6) After one week adaption, the experimental animals were subcutaneously inoculated with human colon cancer HT-29 tumor tissues. When the tumors grew to 100-300 mm^3, the animals were randomly divided into several groups. […] Volume of tumors and weight of mice were measured 2-3 times every week, the data of which were recorded. The equation for the calculation of volume of tumors (V) is: V=½×a×b^2 wherein a, b represent length and width, respectively.

c-Src = c-Src (Homo sapiens, UniProt P12931); test: ELISA tyrosine kinase inhibition; assay type: biochemical; conditions: concentration increased to 10^4 nM
Chain of c-Src (P12931 whole entry, species assumed): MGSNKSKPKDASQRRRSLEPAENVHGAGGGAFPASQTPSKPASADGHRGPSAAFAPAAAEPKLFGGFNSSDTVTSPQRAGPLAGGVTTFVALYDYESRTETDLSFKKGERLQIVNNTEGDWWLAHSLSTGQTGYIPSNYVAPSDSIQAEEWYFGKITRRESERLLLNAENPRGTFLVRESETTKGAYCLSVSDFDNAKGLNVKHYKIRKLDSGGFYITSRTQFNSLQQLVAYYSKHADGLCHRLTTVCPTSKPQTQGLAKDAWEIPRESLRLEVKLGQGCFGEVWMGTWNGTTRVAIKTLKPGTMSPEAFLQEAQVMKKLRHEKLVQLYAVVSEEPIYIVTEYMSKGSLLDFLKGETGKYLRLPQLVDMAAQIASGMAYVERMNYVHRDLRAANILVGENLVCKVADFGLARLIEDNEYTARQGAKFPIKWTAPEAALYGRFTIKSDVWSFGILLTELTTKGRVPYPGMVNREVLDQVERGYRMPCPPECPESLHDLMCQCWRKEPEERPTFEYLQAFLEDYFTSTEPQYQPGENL
Protocol: Phosphorylation of substrate was determined with monoclonal antibody of anti-phosphorylation tyrosine (PY99). Goat anti-mouse IgG marked with HRP was then added, and the degree of phosphorylation of substrate was determined with OPD coloration. At the same time, the control group without tyrosine kinase and control wells of corresponding DMSO concentration were set up. 2 M of H2SO4 was added in 50 μl/well to terminate the reaction. Data was read with adjustable wavelength micro plate enzyme-labeling instrument VERSAmax (Sunnyvale, Calif., U.S.A.), followed by visualization reaction, OD490 nm value was then observed.
Relative inhibition rate of drugs on tyrosine kinase protein was determined.

[5] = 75 mg/kg; initial tumor volume 25-100 mm3; 28 days or more; cited from earlier work
[6] = test system: human colon cancer Ls174t; test: Efficacy on human colon cancer Ls174t transplanted in nude mice; conditions: for Weight after Removing Tumor, d0 / TV x ± SD, d0: d0 baseline; for RTV x ± SD / T/C / TV x ± SD, dn: dn 14 days; for Weight after Removing Tumor, dn: dn 14 days after first administration
Protocol: BALB/cA-nude mice, ♀, 5-6 weeks-old, available from Shanghai Slaccas experimental animals limited liability company. […] Rearing environment: SPF grade.
as §6, with “Ls174t” for “HT-29”, “groups in day 0 (d0).” for “groups.”, “The volumes” for “Volume”, “the weights” for “weight”, “a and” for “a,”

[7] = oral 20 mg/kg, individual rats, 20 mg/kg
[8] = 200 mg/kg p.o. once daily d0-d20, dn 21 days
[9] = 50 mg/kg p.o. once daily d0-d13
[10] = 100 mg/kg p.o. once daily d0-d13
[11] = 200 mg/kg p.o. once daily d0-d13

N#CC1(c2ccc(NC(=O)c3cccnc3NCc3ccncc3)cc2)CCCC1 [Compound A, N-[4-(1-cyanocyclopentyl)phenyl]-2-(4-pyridylmethyl)amino-3-pyridine carboxamide]
content after 6 Months Under Light [1]: 95.2%
content after 6 Months at 60° C. [1]: 92.2%
content after 6 Months at Room Temperature [1]: 95.7%
IC50 (VEGFR-2): ~1 nM
CL, Mean ± SD ([2]; oral 20 mg/kg, 3 rats): 1520 ± 393 mL/min/kg
Kel, Mean ± SD ([2]; oral 20 mg/kg, 3 rats): 0.426 ± 0.169 h⁻¹
Vd, Mean ± SD ([2]; oral 20 mg/kg, 3 rats): 300 ± 69.4 L/kg
AUC0→8h [2, 7]: 295 ng·h/mL and 211 ng·h/mL
CL [2, 7]: 1920 mL/min/kg and 1120 mL/min/kg and 1540 mL/min/kg
Cmax [2, 7]: 68.9 ng/mL and 79.2 ng/mL
Kel [2, 7]: 0.325 h⁻¹ and 0.622 h⁻¹ and 0.332 h⁻¹
MRT [2, 7]: 3.38 h and 3.32 h
T1/2 [2, 7]: 1.12 h and 2.09 h
Tmax [2, 7]: 1 h
Vd [2, 7]: 366 L/kg and 228 L/kg and 308 L/kg
AUC(0-t) ([2]; male, Sprague-Dawley, rat, plasma, po, 20 mg/kg, 3 rats, read-out: AUC0→8h, Mean ± SD): 226 ± 63 ng·h/mL
Cmax ([2]; male, Sprague-Dawley, rat, plasma, po, 20 mg/kg, 3 rats, read-out: Cmax, Mean ± SD): 69.6 ± 9.2 ng/mL
MRT ([2]; male, Sprague-Dawley, rat, plasma, po, 20 mg/kg, 3 rats, read-out: MRT, Mean ± SD): 3.3 ± 0.09 h
half-life ([2]; male, Sprague-Dawley, rat, plasma, po, 20 mg/kg, 3 rats, read-out: T1/2, Mean ± SD (converted)): 1.78 ± 0.57 h
Tmax ([2]; male, Sprague-Dawley, rat, plasma, po, 20 mg/kg, 3 rats, read-out: Tmax, Mean ± SD): 1.33 ± 0.29 h
AUC(0-t) ([2]; male, Sprague-Dawley, rat, plasma, po, 20 mg/kg, individual rats, read-out: AUC0→8h): 172 ng·h/mL
Cmax ([2]; male, Sprague-Dawley, rat, plasma, po, 20 mg/kg, individual rats, read-out: Cmax): 60.8 ng/mL
MRT ([2]; male, Sprague-Dawley, rat, plasma, po, 20 mg/kg, individual rats, read-out: MRT): 3.2 h
half-life ([2]; male, Sprague-Dawley, rat, plasma, po, 20 mg/kg, individual rats, read-out: T1/2 (converted)): 2.13 h
Tmax ([2]; male, Sprague-Dawley, rat, plasma, po, 20 mg/kg, individual rats, read-out: Tmax): 1.5 h
efficacy in combination with oxaliplatin (colon cancer Ls174t; combination with oxaliplatin): improved
toxicity in combination with oxaliplatin (colon cancer Ls174t; mouse, in vivo): not increased
efficacy on colon cancer Ls174t transplanted in nude mice (colon cancer Ls174t; used alone, compared with PTK787): distinctly better than PTK787
inhibition activity on kinases Ret, VEGFR-1, PDGFR-β, c-kit, cSRC [3]: certain selective inhibition activity
efficacy on non-small cell lung cancer A549 transplanted in nude mice ([4]; compared with PTK787): distinctly better than PTK787
maximum efficacy on A549 ([4]; compared with ZD6474 at a customary dose): equivalent to ZD6474
Solubility in water (Solubility): Insoluble

Cl.N#CC1(c2ccc(NC(=O)c3cccnc3NCc3ccncc3)cc2)CCCC1 [Hydrochloride of compound A]
AUC0→8 h Mol dose (in vivo): 17653 ± 3232 ng·h/mL
stability (conclusion of stability experiments) [1]: most satisfying
content after 6 Months Under Light [1]: 97.6%
content after 6 Months at 60° C. [1]: 94.7%
content after 6 Months at Room Temperature [1]: 98.2%
Solubility in water (Solubility): very slightly

N#CC1(c2ccc(NC(=O)c3cccnc3NCc3ccncc3)cc2)CCCC1.O=C(O)/C=C\C(=O)O [Maleate of compound A]
AUC0→8 h Mol dose (in vivo): 11697 ± 8807 ng·h/mL
content after 6 Months Under Light [1]: 94.2%
content after 6 Months at 60° C. [1]: 93.5%
content after 6 Months at Room Temperature [1]: 96.4%
Solubility in water (Solubility): Insoluble

Clc1ccc(Nc2nnc(Cc3ccncc3)c3ccccc23)cc1 [PTK787, reference compound]
Weight after Removing Tumor, d0 (human colon cancer HT-29; 200 mg/kg p.o. once daily d0-d20, d0 baseline): 15.9 g
RTV x ± SD (human colon cancer HT-29; [8]): 4.9 ± 1.36
TV x ± SD, dn (human colon cancer HT-29; [8]): 1185 ± 143
Weight after Removing Tumor, dn (human colon cancer HT-29; 200 mg/kg p.o. once daily d0-d20, dn 21 days after first administration): 13.9 g
TV x ± SD, d0 (human colon cancer HT-29; 200 mg/kg p.o., d0 baseline): 252 ± 43
tolerance (human colon cancer HT-29; mouse, in vivo, po): well tolerated
inhibition on c-Src (c-Src): no inhibition
best T/C % [5]: 40%
Weight after Removing Tumor, d0 [6, 9]: 19.5 g
RTV x ± SD [6, 9]: 9.4 ± 5.9
T/C [6, 9]: 76.4%
TV x ± SD, dn [6, 9]: 1425 ± 613
Weight after Removing Tumor, dn [6, 9]: 17.6 g
TV x ± SD, d0 ([6]; 50 mg/kg p.o.): 171 ± 39
Weight after Removing Tumor, d0 [6, 10]: 19.3 g
RTV x ± SD [6, 10]: 8.8 ± 3.5
T/C [6, 10]: 71.5%
TV x ± SD, dn [6, 10]: 1538 ± 402
Weight after Removing Tumor, dn [6, 10]: 17.3 g
TV x ± SD, d0 ([6]; 100 mg/kg p.o.): 175 ± 43
Weight after Removing Tumor, d0 [6, 11]: 18.8 g
RTV x ± SD [6, 11]: 7.4 ± 2.0
TV x ± SD, dn [6, 11]: 1076 ± 198
Weight after Removing Tumor, dn [6, 11]: 17.1 g
TV x ± SD, d0 ([6]; 200 mg/kg p.o.): 150 ± 25
efficacy at 400 mg/kg ([6]; 400 mg/kg): did not increase significantly
ED50 ([6]; Mus musculus, LS174T, read-out: ED50 on colon cancer Ls174t): 459 mg/kg
tolerance at 400 mg/kg ([6]; mouse, in vivo): could be tolerated by mice

N#CC1(c2ccc(NC(=O)c3cccnc3NCc3ccncc3)cc2)CCCC1.O=P(O)(O)O [Phosphate of compound A]
AUC0→8 h Mol dose (in vivo): 9074 ± 6292 ng·h/mL
content after 6 Months Under Light [1]: 97.1%
content after 6 Months at 60° C. [1]: 94.2%
content after 6 Months at Room Temperature [1]: 97.3%
Solubility in water (Solubility): Insoluble

N#CC1(c2ccc(NC(=O)c3cccnc3NCc3ccncc3)cc2)CCCC1.O=C(O)CCC(=O)O [Succinate of compound A]
content after 6 Months Under Light [1]: 94.2%
content after 6 Months at 60° C. [1]: 93.8%
content after 6 Months at Room Temperature [1]: 96.2%
